Experimental data taken from patent US9340585B2, “Competence stimulating peptide” (INSTITUT NATIONAL DE LA RECHERCHE AGRONOMIQUE, priority 2009, dated 2016).
Where no end group is shown, it is not given here. The star is where a group is joined. Cam = NC(=O)C*

Legend:
[1] = test system: strain deleted for the papR gene; assay: Transformation assay: peptide added to culture of papR-deleted strain in CDM; type: cell-based, S. thermophilus; conditions: for Competence: peptide stimulates competence, YES/NO
Experimental: (§1) S. thermophilus cells are grown overnight at 42° C. in CDM. The culture is then diluted in CDM at an OD600 0.05. Sixty minutes after dilution, the competence stimulating peptide (CSP), which is the mature peptide comprising SEQ ID No1 or fragments or derivatives of SEQ ID No1 that allow to induce competence in S. thermophilus, is added to the culture at a final concentration of 1 μM. Ten minutes later, 100 μl of the culture containing the CSP is mixed with 1 μg of DNA and incubated for 2 hours at 28° C. when mixed with a thermosensitive replicative plasmid DNA or 1 hour at 42° C. when mixed with chromosomal DNA or PCR fragments, before being serially diluted and spread on M17lac plates with the appropriate antibiotic.
The inventors tested the activity of fragments of SEQ ID No1 using a strain deleted for the papR gene using the protocol described in part 8. The inventors thus synthesized different fragments of SEQ ID No1 in order to test their biological activity. Fragments were synthesized as below:
(§2) To test the biological activity of those fragments, peptides were added to a culture of a strain deleted for the papR gene at a final concentration of 1 μM, 1 hour after the dilution of the culture at an OD600 of 0.05 in a chemical defined medium (CDM). Transformation assays were performed with 100 μl of cells with 1 μg of plasmid and or chromosomal DNA.

[2] = test system: S. thermophilus strain LMG18311; assay: Transformation assay: peptide added to culture of strain LMG18311; type: cell-based
Experimental: as §1, §2
(§3) S. thermophilus strain LMG18311 is naturally poorly competent and strain CNRZ1066 is naturally not competent. However, complementation of both strains with a plasmid that overexpresses the papR gene makes them competent. […]

[3] = test system: S. thermophilus strain CNRZ1066; assay: Transformation assay: peptide added to culture of strain CNRZ1066; type: cell-based
Experimental: as §1, §2, §3

[4] = Chromosomal transforming DNA 1 μg, peptide 1 μM, fragment comparison
[5] = Chromosomal transforming DNA, alkylation comparison

PYFAGCL (Fragment of SEQ ID N07) [SEQ ID N^o13]
numbers of transformants obtained with 100 μl of competent cells [1, 4]: 0 | numbers of transformants obtained with 100 μl of competent cells ([1]; Plasmid transforming DNA 1 μg, peptide 1 μM, fragment comparison): 0

IAILPYFAGCL (listed as Streptococcus thermophilus) [SEQ ID N^o7]
competence after addition of the peptide to the culture ([2]; LMG18311, result in words): renders them competent | numbers of transformants obtained with 100 μl of competent cells ([2]; LMG18311, Chromosomal transforming DNA): 477 | competence after addition of the peptide to the culture ([3]; CNRZ1066, result in words): renders them competent | numbers of transformants obtained with 100 μl of competent cells ([3]; CNRZ1066, Chromosomal transforming DNA): 0 | numbers of transformants obtained with 100 μl of competent cells [1, 4]: 24 | numbers of transformants obtained with 100 μl of competent cells [1, 5]: 35 | Competence ([1]; listed as 7): YES | Competence ([1]; listed as SEQ ID No7): active competence peptide

LPYFAGCL (Fragment of SEQ ID N07) [SEQ ID N^o12]
numbers of transformants obtained with 100 μl of competent cells [1, 4]: 41

IAILPYFAGC*L (IAILPYFAGC(Cam)L; listed as Streptococcus thermophilus) [Alkylated SEQ ID N^o7]
numbers of transformants obtained with 100 μl of competent cells [1, 5]: 0 | numbers of transformants obtained with 100 μl of competent cells ([1]; Plasmid transforming DNA, alkylation comparison): 2
